What was measured:
[1] = biological target: human D2 (D2 long receptor) (Homo sapiens, UniProt P14416); assay: biochemical; type: binding
[2] = biological target: T1, human D4 (D4.4 variant) (Homo sapiens, UniProt P21917); assay: biochemical; type: binding
T1 sequence (P21917 1-419): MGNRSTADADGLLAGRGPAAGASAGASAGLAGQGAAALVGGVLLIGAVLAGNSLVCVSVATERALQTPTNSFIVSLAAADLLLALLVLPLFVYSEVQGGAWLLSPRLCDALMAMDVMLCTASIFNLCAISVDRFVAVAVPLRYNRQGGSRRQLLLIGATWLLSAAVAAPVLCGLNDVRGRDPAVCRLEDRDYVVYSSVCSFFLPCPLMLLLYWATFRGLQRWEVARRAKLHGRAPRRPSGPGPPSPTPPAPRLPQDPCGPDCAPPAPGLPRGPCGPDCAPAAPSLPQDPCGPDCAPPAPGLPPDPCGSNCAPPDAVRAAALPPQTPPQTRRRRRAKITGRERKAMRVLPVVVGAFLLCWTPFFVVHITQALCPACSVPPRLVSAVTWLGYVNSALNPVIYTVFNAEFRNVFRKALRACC

[3] = biological target: human D3 (Homo sapiens, UniProt P35462); assay: D3 radioligand binding assay
[4] = biological target: T1, human D4 (D4.4 variant); assay: cell-based
[5] = biological target: T2, cloned human D4 (Homo sapiens, UniProt P21917); assay: cell-based; conditions: Tango EC50, D4 β-arrestin
T2 sequence (P21917 1-419): T1 sequence (P21917 1-419)

[6] = system: D4 dopamine receptor; assay: Signaling bias, G protein versus β-arrestin, versus quinpirole; type: cell-based, human
[7] = biological target: T3, human D4 (Homo sapiens, UniProt P21917); assay: Arrestin BRET; type: cell-based
T3 sequence (P21917 1-419): T1 sequence (P21917 1-419)

[8] = biological target: T3, human D4; assay: cell-based

Chain of human D2 (D2 long receptor) (P14416 whole entry): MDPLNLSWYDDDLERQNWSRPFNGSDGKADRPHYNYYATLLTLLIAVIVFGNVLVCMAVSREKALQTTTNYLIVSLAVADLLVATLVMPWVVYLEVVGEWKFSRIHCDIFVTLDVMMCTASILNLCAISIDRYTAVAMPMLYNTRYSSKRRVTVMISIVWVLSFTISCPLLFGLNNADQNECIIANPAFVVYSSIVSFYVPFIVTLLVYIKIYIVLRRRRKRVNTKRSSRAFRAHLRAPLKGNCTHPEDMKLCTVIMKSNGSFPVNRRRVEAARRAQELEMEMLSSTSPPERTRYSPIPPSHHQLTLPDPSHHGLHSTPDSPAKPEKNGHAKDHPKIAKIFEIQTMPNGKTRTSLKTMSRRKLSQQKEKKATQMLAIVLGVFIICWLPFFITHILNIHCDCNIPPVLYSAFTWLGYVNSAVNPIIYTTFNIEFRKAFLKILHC
Chain of human D3 (P35462 whole entry): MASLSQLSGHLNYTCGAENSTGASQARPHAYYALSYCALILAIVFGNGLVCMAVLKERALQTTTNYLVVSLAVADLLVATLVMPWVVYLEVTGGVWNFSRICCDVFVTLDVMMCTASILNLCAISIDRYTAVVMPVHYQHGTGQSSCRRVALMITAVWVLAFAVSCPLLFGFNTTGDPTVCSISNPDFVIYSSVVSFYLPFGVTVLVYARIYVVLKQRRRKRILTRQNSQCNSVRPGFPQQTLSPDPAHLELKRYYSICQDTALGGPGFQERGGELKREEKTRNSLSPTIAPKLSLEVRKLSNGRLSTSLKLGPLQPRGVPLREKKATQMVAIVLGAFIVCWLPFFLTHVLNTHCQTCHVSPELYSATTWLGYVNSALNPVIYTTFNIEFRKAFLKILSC

Structure (SMILES)	Ki [1] [µM]	Ki [2] [nM]	Ki [3] [µM]	EC50 [4] [µM]	EC50 [5] [µM]	EC50 [7] [nM]	EC50 [8] [µM]	β-arrestin bias [6]
C[C@@H]1CCCN(C(C)(C)CNc2nc(C3CC3)ns2)C1 [ZINC92642352]	> 10	820	> 10					
O[C@]1(CNCc2cnn(-c3ccc(Br)cc3)c2)CCSC1 [ZINC176752603]	> 10	300	> 10					
CC(C)N1C[C@H](C)[C@H](NC(=O)c2cccc3cc[nH]c23)C1 [ZINC247398558]	> 10	210	> 10					
C=Cn1cc(CNC[C@@H](CO)Cc2ccccc2Br)cn1 [ZINC278933042]	> 10	270	> 10	0.041	22.3			
OC[C@H](Cc1ccc(F)cc1)NCc1ccn(-c2ccccc2)n1 [ZINC358506216]	5.88	250	6.54					
C#CCOc1ccccc1CN1CC[C@@]2(C1)C(=O)Nc1ccccc12 [ZINC375299581]	> 10	180	> 10					
C[C@H](N[C@H](CO)Cc1ccccc1)c1cc2c(s1)CCC2 [ZINC437075156]	> 10	190	> 10	10.4				
CCC(CC)[C@@H](O)CNCc1cnc(-c2ccccc2F)s1 [ZINC449156693]	> 10	760	> 10					
C[C@H]1CN(C2CC2)C[C@H]1NC(=O)c1cc2cc(Br)ccc2o1 [ZINC467716766]	> 10	700	> 10	34.8				
CCC[C@H](C)[C@H](CO)NCCc1nc(-c2ccc(Cl)cc2)no1 [ZINC567992445]	> 10	850	> 10	4.82				
C=C(C)COCCNC[C@H](O)Cc1ccc(C(F)(F)F)cc1 [ZINC569686370]	> 10	550	> 10	7.8				
CC1(C)CCN(CC(=O)NC[C@@H]2CCC[C@H]2C2CC2)C1 [ZINC572302473]	> 10	910	> 10					
CC(C)N1C[C@H](C)[C@H](NC(=O)N2Cc3ccccc3[C@@H]2C)C1 [ZINC621433143]	> 10	669	> 10	0.35	0.898	1250	3.15	7
O=C(CN1C[C@@H](O)C[C@@H]1C1CC1)Nc1ccc(Br)cc1 [ZINC640028109]	> 10	810	> 10					

Now from value to compound, other results behind:

Ki [1] [µM]	Ki [2] [nM]	Ki [3] [µM]	EC50 [4] [µM]	EC50 [5] [µM]	EC50 [7] [nM]	EC50 [8] [µM]	Structure (SMILES)	β-arrestin bias [6]
> 10	260	3.57	10.4				Cc1ccc(CNCCCn2cccn2)cc1Br [ZINC127859549]	
5.72	180	1.07					Cc1cccc(CCNCc2ccn(-c3ccccc3)n2)c1 [ZINC237938360]	
> 10	560	> 10	9.9				C[C@H]1CN(C2CC2)C[C@H]1NC(=O)c1cc2cc([N+](=O)[O-])ccc2s1 [ZINC268141382]	
2	990	5.87					CCCC[C@H](CN)NC(=O)Nc1cnn(-c2ccc(C)cc2C)c1 [ZINC415558697]	
> 10	980	> 10					N#Cc1ccnc(SC[C@]2(O)CCN(Cc3ccccc3)C2)c1 [ZINC601953994]	
> 10	440	> 10	31				C[C@H](CNC(=O)c1coc2ccc(Cl)cc12)N1CCCC1 [ZINC651262870]	
